# Patent US20060106026A1, “4-(4-methylpiperazin-1-ylmethyl)-n-[4-pyridin-3-yl)pyrimidin-2-ylamino)phenyl]-benzamide for treating anaplastic thyroid cancer” (priority 2002, published 2006)
# “And” between values parts separate entries of the source, which are not always exact repeats. Equal values may be shown once.
# Assays:
# [1] = test system: thyroid cancer cell lines
# Experimental: (§1) For flow cytometry analysis, cells were fixed with 70% ethanol and wash with PBS. After pre-incubation with RNase A (0.1 mg per ml) at room temperature, cells were stained with PI (25 μg per ml). Fluorescence was measured by using FACScan flow cytometer (Becton Dickinson, Mountain View, Calif.). This experiment was performed at least three times.
# KTC-1 = details: KTC-1, 10 μM of SALT I, 48 hours
# Experimental: as §1
# FRO = details: 10 μM of SALT I, 48 hours
# Experimental: as §1
# 1F3 = details: 1F3, 10 μM of SALT I, 48 hours
# Experimental: as §1
smiles,measurement,setting,value
CS(=O)(=O)O.Cc1ccc(NC(=O)c2ccc(CN3CCN(C)CC3)cc2)cc1Nc1nccc(-c2cccnc2)n1 [SALT I],DNA fragmentation in the DNA ladder assay,[1]; after 48 hours of treatment (data not shown),no DNA fragmentation was detected
same,apoptotic fraction (sub-G1),"[1]; after 48 hours of treatment, in any cell line",did not significantly increase
same,effect on cell cycle (G2/M or S-phase changes),KTC-1,No such changes were observed
same,percentage of cells in S phase,KTC-1; DMSO 7.68,6.53%
same,percentage of cells in G2-M phase,KTC-1; DMSO 20.11,18.7%
same,percentage of cells in G1 phase,KTC-1; DMSO 72.2,74.77%
same,effect on cell cycle (arrest),FRO,S-phase arrest
same,percentage of cells in G2-M phase,FRO; DMSO 24.95,15% and 14.98%
same,percentage of cells in G1 phase,FRO; DMSO 32.16,30.91%
same,percentage of cells in S phase,FRO; DMSO 43.26,54% and 54.11%
same,effect on cell cycle (G2/M or S-phase changes),1F3,No such changes were observed
same,percentage of cells in S phase,1F3; DMSO 9.4,9.1%
same,percentage of cells in G2-M phase,1F3; DMSO 27.3,20.4%
same,percentage of cells in G1 phase,1F3; DMSO 63.3,70.5%
